Columns and labels:
Format in all cases: cell-based
Conditions in all cases: mda-mb-231, 24 h
[1] = system: MDA-MB-231; experiment: Toxicity in human MDA-MB-231 cells assessed as reduction in cell viability at 10 uM incubated for 24 hrs by MTS assay
[2] = system: MDA-MB-231; experiment: Toxicity in human MDA-MB-231 cells assessed as reduction in cell viability at >1 uM incubated for 24 hrs by MTS assay
[3] = system: MDA-MB-231; experiment: Toxicity in human MDA-MB-231 cells assessed as reduction in cell viability at <1 uM incubated for 24 hrs by MTS assay

COC(=O)CCC(=O)N1Cc2ccccc2C[C@H]1C(=O)NCC(=O)N1C2CCCCC2C[C@H]1C(=O)NC(CCCNC(=N)N)P(=O)(Oc1ccccc1)Oc1ccccc1 (stereo partly drawn)
Activity [1]: Non-Toxic

CN1\C(=C/C=C/C=C/C2N(CCCCCC(=O)NCCCCCC(=O)N3Cc4ccccc4C[C@H]3C(=O)NCC(=O)N3C4CCCCC4C[C@H]3C(=O)NC(CCCNC(=N)N)P(=O)(Oc3ccccc3)Oc3ccccc3)c3ccccc3C2(C)C)C(C)(C)c2ccccc21 (stereo partly drawn)
Activity [2]: Toxic | Activity [3]: Non-Toxic
